# Assay results from patent US10370339B2, “N-Methylbenzimidazoles as mIDH1 inhibitors” (BAYER PHARMA AKTIENGESELLSCHAFT, priority 2015, dated 2019).
# Target: IDH1 R132H enzyme (Homo sapiens (Human), UniProt O75874, R132H)
# Experiment: Mutant IDH1 R132H biochemical assay
# Settings: NADPH consumption, luminescent readout; 1.5 nM enzyme, 1 μM NADPH, 250 μM α-KG, 30 minutes, 32° C.
# Procedure: Mutant IDH1 R132H Biochemical Assay mIDH1 catalyzes the NADPH-dependent reduction of alpha-ketoglutarate (a-KG) to (2R)-2-hydroxyglutarate (2-HG). NADPH consumption was measured by luminescent readout.
# The biochemical reactions were performed at 32° C. in 384-well plates using a reaction volume of 41 μL and the following assay buffer conditions: 50 mM Tris pH 7.5, 100 mM NaCl, 20 mM MgCl2, 0.05% BSA, 0.01% Brij, 1 μM NADPH, and 250 μM α-KG. The IDH1 R132H enzyme was used in a final concentration of 1.5 nM. Test compounds were used in a concentration range between 0.002 and 10 μM. The final DMSO concentration was 2.4%.
# The reaction was incubated for 30 minutes, then 40 μL of detection mix (0.75 μg/ml Luciferase, 0.02 U/ml Oxidoreductase, 4 μg/mL FMN, 2 μL/ml decanal/ethanol, 50 mM Tris pH 7.5, 0.5% Glycerin, 0.01% Tween-20, 0.05% BSA) was added. Luminescence was measured on a luminescent reader (10 seconds measuring time, 1 second integration period, 30% sensitivity). The decrease in luminescence is proportional to mIDH1 activity. IC50 values are determined by interpolation from plots of relative luminescence versus inhibitor concentration.
# Chain of IDH1 R132H enzyme (O75874 whole entry R132H): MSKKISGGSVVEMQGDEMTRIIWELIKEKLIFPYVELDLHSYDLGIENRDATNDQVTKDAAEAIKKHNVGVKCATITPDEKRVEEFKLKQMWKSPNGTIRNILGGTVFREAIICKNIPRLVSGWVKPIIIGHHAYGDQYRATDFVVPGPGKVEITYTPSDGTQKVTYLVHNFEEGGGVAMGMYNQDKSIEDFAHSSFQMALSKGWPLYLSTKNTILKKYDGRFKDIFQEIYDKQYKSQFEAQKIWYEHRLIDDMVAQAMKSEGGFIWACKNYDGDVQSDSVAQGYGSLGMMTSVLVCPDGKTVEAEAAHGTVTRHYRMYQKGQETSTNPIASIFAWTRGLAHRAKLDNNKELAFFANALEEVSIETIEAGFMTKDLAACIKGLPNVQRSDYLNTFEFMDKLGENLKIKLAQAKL
row,IC50 [nM],SMILES
1,200,COC(=O)c1ccc2c(c1)nc(Nc1ccc(OC(C)C)cc1)n2[C@@H]1C[C@H](C)CC[C@H]1C(C)C [Example 2-3]
2,40,COC(=O)c1cc2nc(Nc3ccc(C(C)C)cc3)n([C@@H]3C[C@H](C)CC[C@H]3C(C)C)c2cc1C [Example 2-5]
3,220,COC(=O)c1cc2nc(Nc3ccc(OC(C)C)cc3)n([C@@H]3C[C@H](C)CC[C@H]3C(C)C)c2cc1C [Example 2-6]
4,100,COC(=O)c1cc2nc(Nc3ccc(OC(F)(F)F)cc3)n([C@@H]3C[C@H](C)CC[C@H]3C(C)C)c2cc1OC [Example 2-7]
5,130,COC(=O)c1cc2nc(Nc3ccc(C(C)C)cc3)n([C@@H]3C[C@H](C)CC[C@H]3C(C)C)c2cc1OC [Example 2-8]
6,280,COC(=O)c1cc2nc(Nc3ccc(OC(C)C)cc3)n([C@@H]3C[C@H](C)CC[C@H]3C(C)C)c2cc1OC [Example 2-9]
7,300,COC(=O)Cc1ccc2c(c1)nc(Nc1ccc(OC(C)C)cc1)n2[C@@H]1C[C@H](C)CC[C@H]1C(C)C [Example 2-12]
8,80,COC(=O)Cc1cc2nc(Nc3ccc(OC(C)C)cc3)n([C@@H]3C[C@H](C)CC[C@H]3C(C)C)c2cc1C [Example 2-15]
9,68,COC(=O)Cc1cc2nc(Nc3ccc(C(C)C)cc3)n([C@@H]3C[C@H](C)CC[C@H]3C(C)C)c2cc1OC [Example 2-17]
10,120,COC(=O)Cc1cc2nc(Nc3ccc(OC(C)C)cc3)n([C@@H]3C[C@H](C)CC[C@H]3C(C)C)c2cc1OC [Example 2-18]
11,380,COC(=O)CCc1ccc2c(c1)nc(Nc1ccc(OC(C)C)cc1)n2[C@@H]1C[C@H](C)CC[C@H]1C(C)C [Example 2-21]
12,15,Cc1cc2c(cc1C(=O)O)nc(Nc1ccc(OC(C)C)cc1)n2[C@@H]1C[C@H](C)CC[C@H]1C(C)C [Example 2-27]
13,16,COc1cc2c(cc1C(=O)O)nc(Nc1ccc(OC(F)(F)F)cc1)n2[C@@H]1C[C@H](C)CC[C@H]1C(C)C [Example 2-28]
14,13,COc1cc2c(cc1C(=O)O)nc(Nc1ccc(C(C)C)cc1)n2[C@@H]1C[C@H](C)CC[C@H]1C(C)C [Example 2-29]
15,30,Cc1cc2c(cc1CC(=O)O)nc(Nc1ccc(OC(C)C)cc1)n2[C@@H]1C[C@H](C)CC[C@H]1C(C)C [Example 2-36]
16,70,COc1cc2c(cc1CC(=O)O)nc(Nc1ccc(OC(C)C)cc1)n2[C@@H]1C[C@H](C)CC[C@H]1C(C)C [Example 2-39]
17,620,COC(=O)CCc1cc2nc(Nc3ccc(OC(C)C)cc3)n([C@@H]3C[C@H](C)CC[C@H]3C(C)C)c2cc1OC [Example 2-44]
18,180,COC(=O)CCc1cc2nc(Nc3ccc(C(C)C)cc3)n([C@@H]3C[C@H](C)CC[C@H]3C(C)C)c2cc1OC [Example 2-45]
19,2800,COc1cc2c(cc1CCC(=O)O)nc(Nc1ccc(OC(C)C)cc1)n2[C@@H]1C[C@H](C)CC[C@H]1C(C)C [Example 2-47]

# Second part, the compound before the results:
row,SMILES,IC50 [nM]
1,"COC(=O)c1ccc2c(c1)nc(Nc1ccc(OC(F)(F)F)cc1)n2[C@@H]1C[C@H](C)CC[C@H]1C(C)C [Example 2-1, methyl 1-[(1R,2S,5R)-2-isopropyl-5-methylcyclohexyl]-2-{[4-(trifluoromethoxy)-phenyl]amino}-1H-benzimidazole-5-carboxylate]",120
2,COC(=O)c1ccc2c(c1)nc(Nc1ccc(C(C)C)cc1)n2[C@@H]1C[C@H](C)CC[C@H]1C(C)C [Example 2-2],65
3,COC(=O)Cc1ccc2c(c1)nc(Nc1ccc(OC(F)(F)F)cc1)n2[C@@H]1C[C@H](C)CC[C@H]1C(C)C [Example 2-10],120
4,COC(=O)Cc1ccc2c(c1)nc(Nc1ccc(C(C)C)cc1)n2[C@@H]1C[C@H](C)CC[C@H]1C(C)C [Example 2-11],80
5,COC(=O)Cc1cc2nc(Nc3ccc(OC(F)(F)F)cc3)n([C@@H]3C[C@H](C)CC[C@H]3C(C)C)c2cc1C [Example 2-13],45
6,COC(=O)Cc1cc2nc(Nc3ccc(C(C)C)cc3)n([C@@H]3C[C@H](C)CC[C@H]3C(C)C)c2cc1C [Example 2-14],35
7,COC(=O)Cc1cc2nc(Nc3ccc(OC(F)(F)F)cc3)n([C@@H]3C[C@H](C)CC[C@H]3C(C)C)c2cc1OC [Example 2-16],70
8,COC(=O)CCc1ccc2c(c1)nc(Nc1ccc(OC(F)(F)F)cc1)n2[C@@H]1C[C@H](C)CC[C@H]1C(C)C [Example 2-19],95
9,COC(=O)CCc1ccc2c(c1)nc(Nc1ccc(C(C)C)cc1)n2[C@@H]1C[C@H](C)CC[C@H]1C(C)C [Example 2-20],130
10,"CC(C)[C@@H]1CC[C@@H](C)C[C@H]1n1c(Nc2ccc(OC(F)(F)F)cc2)nc2cc(C(=O)O)ccc21 [Example 2-22, 1-[(1R,2S,5R)-2-isopropyl-5-methylcyclohexyl]-2-{[4-(trifluoromethoxy)phenyl]-amino}-1H-benzimidazole-5-carboxylic acid]",4
11,CC(C)c1ccc(Nc2nc3cc(C(=O)O)ccc3n2[C@@H]2C[C@H](C)CC[C@H]2C(C)C)cc1 [Example 2-23],6.3
12,CC(C)Oc1ccc(Nc2nc3cc(C(=O)O)ccc3n2[C@@H]2C[C@H](C)CC[C@H]2C(C)C)cc1 [Example 2-24],13
13,Cc1cc2c(cc1C(=O)O)nc(Nc1ccc(OC(F)(F)F)cc1)n2[C@@H]1C[C@H](C)CC[C@H]1C(C)C [Example 2-25],8
14,Cc1cc2c(cc1C(=O)O)nc(Nc1ccc(C(C)C)cc1)n2[C@@H]1C[C@H](C)CC[C@H]1C(C)C [Example 2-26],7.5
15,CC(C)c1ccc(Nc2nc3cc(CC(=O)O)ccc3n2[C@@H]2C[C@H](C)CC[C@H]2C(C)C)cc1 [Example 2-32],11
16,CC(C)Oc1ccc(Nc2nc3cc(CC(=O)O)ccc3n2[C@@H]2C[C@H](C)CC[C@H]2C(C)C)cc1 [Example 2-33],45
17,Cc1cc2c(cc1CC(=O)O)nc(Nc1ccc(OC(F)(F)F)cc1)n2[C@@H]1C[C@H](C)CC[C@H]1C(C)C [Example 2-34],6.3
18,Cc1cc2c(cc1CC(=O)O)nc(Nc1ccc(C(C)C)cc1)n2[C@@H]1C[C@H](C)CC[C@H]1C(C)C [Example 2-35],8.3
19,COc1cc2c(cc1CC(=O)O)nc(Nc1ccc(OC(F)(F)F)cc1)n2[C@@H]1C[C@H](C)CC[C@H]1C(C)C [Example 2-37],23
20,COc1cc2c(cc1CC(=O)O)nc(Nc1ccc(C(C)C)cc1)n2[C@@H]1C[C@H](C)CC[C@H]1C(C)C [Example 2-38],12
21,CC(C)[C@@H]1CC[C@@H](C)C[C@H]1n1c(Nc2ccc(OC(F)(F)F)cc2)nc2cc(CCC(=O)O)ccc21 [Example 2-40],15
22,CC(C)c1ccc(Nc2nc3cc(CCC(=O)O)ccc3n2[C@@H]2C[C@H](C)CC[C@H]2C(C)C)cc1 [Example 2-41],12
23,CC(C)Oc1ccc(Nc2nc3cc(CCC(=O)O)ccc3n2[C@@H]2C[C@H](C)CC[C@H]2C(C)C)cc1 [Example 2-42],12
24,"COC(=O)CCc1cc2nc(Nc3ccc(OC(F)(F)F)cc3)n([C@@H]3C[C@H](C)CC[C@H]3C(C)C)c2cc1OC [Example 2-43, methyl 3-(1-[(1R,2S,5R)-2-isopropyl-5-methylcyclohexyl]-6-methoxy-2-{[4-(tri-fluoromethoxy)phenyl]amino}-1H-benzimidazol-5-yl)propanoate]",190
25,"COc1cc2c(cc1CCC(=O)O)nc(Nc1ccc(OC(F)(F)F)cc1)n2[C@@H]1C[C@H](C)CC[C@H]1C(C)C [Example 2-46, 3-(1-[(1R,2S,5R)-2-isopropyl-5-methylcyclohexyl]-6-methoxy-2-{[4-(trifluoromethoxy)phenyl]amino}-1H-benzimidazol-5-yl)propanoic acid]",15

# Target: Mutant IDH1 (LN229 R132H cells) (Homo sapiens (Human), UniProt O75874, R132H)
# Experiment: Mutant IDH1 cellular assay (2-HG levels in medium of LN229 R132H cells)
# Type: cell-based
# Settings: 2-HG production in LN229 R132H cells, 24 hours incubation, fluorescence readout
# Procedure: Levels of (2R)-2-hydroxyglutarate (2HG) were measured in medium of a cell line with overexpression of mutated isocitrate dehydrogenase (mIDH) protein. mIDH catalyzes the NADPH-dependent reduction of alpha-ketoglutarate to 2-HG. Cells (LN229 R132H, Mohrenz et al., Apoptosis (2013) 18:1416-1425) were grown in DMEM containing 10% FCS. They were harvested by trypsin and seeded into 96-well plates. Cells were incubated overnight at 37° C. in 5% CO2. The next day test compounds were added to each cell well. The final concentration of DMSO was 0.1% and DMSO controls were included. The plates were then placed in an incubator for 24 hours.
# 2-HG was measured according to Balss et al. (Acta Neuropathol (2012) 124: 883-891). Briefly, HClO4 was added to each well and the plates were centrifuged. Aliquots are removed and incubated with hydroxyglutarate dehydrogenase (HGDH), diaphorase, NAD+, and resazurin. The conversion of resazurin to resorufin was detected by fluorescence spectroscopy at Ex 540 nm Em 600 nm. The increase in fluorescence is proportional to 2-HG production. IC50 values are determined by interpolation from plots of relative fluorescence vs inhibitor concentration.
# Chain of Mutant IDH1 (LN229 R132H cells) (O75874 whole entry R132H): as above
row,IC50 [nM],SMILES
1,38,COc1cc2c(cc1C(=O)O)nc(Nc1ccc(OC(F)(F)F)cc1)n2[C@@H]1C[C@H](C)CC[C@H]1C(C)C [Example 2-28]
2,40,COc1cc2c(cc1C(=O)O)nc(Nc1ccc(C(C)C)cc1)n2[C@@H]1C[C@H](C)CC[C@H]1C(C)C [Example 2-29]
3,84,COc1cc2c(cc1C(=O)O)nc(Nc1ccc(OC(C)C)cc1)n2[C@@H]1C[C@H](C)CC[C@H]1C(C)C [Example 2-30]
